# Square brackets hold non-standard residues; d marks the D form. Peptide text beside a SMILES is read from it. * marks the point of attachment. Dolaproine = CO[C@@H]([C@@H]1CCCN1)[C@@H](C)C(=O)O; Hexanoyl(6-maleimido) = O=C1C=CC(=O)N1CCCCCC(=O)*; Dil = CC[C@H](C)[C@H](NC)[C@@H](CC(=O)O)OC; X1 = C[C@@H](N*)[C@@H](O)c1ccccc1; NMeV = CN[C@H](C(=O)O)C(C)C
# What was measured:
# 293-GCC#2 tumors [1] = assay: PD study: phosphohistone H3 positive tumor cells after single iv dose; assay type: in vivo, mice; conditions: 75 or 150 ug/kg toxin
# Method: An alternative tumor model used 293-GCC#2 cells. A PD study for 5F9 ADCs in 293-GCC#2 tumor bearing mice was performed. Mice were dosed with single doses of 5F9vcMMAF at 75 ug/kg or 150 ug/kg and serum was taken at timepoints from 1 hr through 4 days for PD analysis of phosphohistone H3 to test antimitotic effects of the toxin on tumor cells. Phospho-histone H3 was detected by antibody (Upstate Biotechnology, now Millipore, Billerica, Mass.) staining of paraffin embedded sections of tumors.
# Similar studies measured the phosphohistone levels in 293-GCC#2 tumor-bearing mice treated with 5F9vcMMAF, 5F9-SPDB-DM4 and 5F9-SMCC-DM1. Mice were dosed with single doses at 150 ug/kg and serum was taken at timepoints from 1 hr through 21 days for PK analysis of both total antibody and toxin-conjugated antibody. The percentage of phosphohistone H3 positive cells in 293-GCC#2 tumors increased in response to all three ADCS: 5F9vcMMAF, 5F9-SMCC-DM1 and 5F9-SPDB-DM4. Maximal phosphohistone H3 levels were 3- to 5-fold increased over baseline, with peaks at 24 hours post-injection.
# 293-GCC#2 tumors [2] = assay: Efficacy study with 5F9vcMMAF and 5F9-DMx in 293-GCC#2 s.c. tumors; assay type: in vivo; conditions: 293-GCC#2 bearing SCID mice, 75 and 150 ug/kg toxin, q14d schedule
# Method: 5F9-SPDB-DM4, 5F9-SMCC-DM1 and 5F9vcMMAF were tested for efficacy in the 293-GCC#2 tumor model at two doses (75 μg/kg and 150 μg/kg toxin), on a q14d×5 schedule. Specifically, this study included vehicle-treated control, Sc209-DM1 (150 μg/kg DM1 eq), Sc209-DM4 (150 μg/kg DM4 eq), Sc209-vcMMAF (150 μg/kg MMAF eq), 5F9-DM1 (150 μg/kg DM1 eq), 5F9-DM1 (75 μg/kg DM1 eq), 5F9-DM4 (150 μg/kg DM4 eg), 5F9-DM4 (75 μg/kg DM4 eq), 5F9-vcMMAF (150 μg/kg MMAF eq), and 5F9-vcMMAF (75 μg/kg MMAF eq). Taconic females mice bearing 293-GCC#2 cells (10 mice per group) were used.
# FIG. 1 depicts tumor growth in 293-GCC#2 bearing SCID mice treated with 5F9vc-MMAF, -DM1, and -DM4 on a q14d schedule. […] Therefore at these doses and schedules, 5F9-SPDB-DM4 had the greatest efficacious differential from its control conjugate.
# 5F9-SPDB-DM4 and 5F9-SMCC-DM1 were tested for efficacy in the 293-GCC#2 tumor model at two doses (75 ug/kg and 150 ug/kg toxin) on a q7d×5 schedule. Specifically, this study included vehicle-treated control, 5F9 alone (15 mg/kg), DM1 (300 μg/kg), DM4 (300 μg/kg), Sc209-DM1 (150 μg/kg DM1 eq), Sc209-DM4 (150 μg/kg DM4 eq), Sc209-vcMMAF (150 μg/kg MMAF eq), 5F9-DM1 (150 μg/kg DM1 eq), 5F9-DM1 (75 μg/kg DM1 eq), 5F9-DM4 (150 μg/kg DM4 eq), and 5F9-DM4 (75 μg/kg DM4 eq). Taconic females mice bearing 293-GCC#2 cells (10 mice per group) were used.
# 293 GCC#2 tumors = assay: Efficacy study with auristatin conjugates in 293 GCC#2 tumors; assay type: in vivo, SCID mice; set-up: TGI (tumor growth inhibition) / TGD (tumor growth delay): unit not given here
# Method: 293 GCC#2 tumor-bearing SCID mice were treated with 5F9 conjugates with vc MMAE, vcMMAF or mcMMAF at three doses in comparison with 209 conjugates of these toxins or with free toxins or vehicle control. Doses were administered iv on a q7d×4 schedule. Tumors were harvested at days 3, 7, 10, 13 and 17. […] Table 18 provides a summary of the results (TGI=tumor growth inhibition, T/C=treatment/control, TGD=tumor growth delay, CR/PR=complete response/partial response; p value=measure to judge statistical significance, NS=not significant).
# All three of these ADCs were efficacious in the 293 GCC#2 model on a q7d schedule.
# 293 GCC#2 cells = assay type: cell-based, human; conditions: 293 cell model (293 GCC#2 vs control cells / 209 ADCs)
# HT29-GCC#5 tumors = assay: Pilot efficacy studies in HT29-GCC#5 s.c. tumors; assay type: in vivo, mice; conditions: 150 μg/kg on a q3d×5 schedule
# Method: Studies were performed to determine efficacious conjugates and dosage regimens in mice bearing HT29-GCC#5 tumors. Mice were dosed with single or multiple doses. These studies determined that there was toxicity at too frequent dosing at higher levels of toxin conjugate (e.g., 150 μg/kg 5F9vcMMAF on a q3d×5 schedule). Another study determined that q14d×5 schedule was too infrequent in this model to allow some toxin conjugates to show significant efficacy vs. controls.
# HT29 GCC#5 cells = assay type: cell-based, human; conditions: HT29 cell model
# [3] = tested on: PHTX-9c primary human colon tumor xenograft; assay: Antitumor activity in PHTX-9c primary human colon tumor xenograft (Study A and Study B); assay type: in vivo, CB-17 SCID mice
# Method: Female CB-17 SCID mice (eight weeks old) were inoculated subcutaneously (SC) into the flank with PHTX-9c tumor fragments (2 mm×2 mm). Tumor growth was monitored twice per week using vernier calipers and the mean tumor volume was calculated using the formula (0.5×[length×width^2]). When the mean tumor volume reached approximately 150 mm^3 (Study A) or 160 mm^3 (Study B), animals were randomized into treatment groups (n=10/group for Study A and n=9/group for Study B).
# Doses were administered on Days 1, 8, and 15 for the QW schedule and Days 1, 4, 8, 11, 15, and 18 for the BIW schedule. […] The equivalent dose of linker+MMAE is 4% of the 5F9-vcMMAE dose. These calculations are based on a mean 3.9 MMAE molecules per antibody and a free antibody molecular weight of 150 kD. Actual antibody molecular weight will vary slightly due to degree of glycosylation.
# Tumor volume and body weight were measured twice weekly and were continued beyond the treatment period to measure regrowth kinetics, as evidenced by tumor growth delay (TGD). Tumor volume measurements were continued until tumor volume reached 10% of the body weight in a single mouse within a treatment group, at which time the group was terminated. The percentage of tumor growth inhibition (TGI) ([mean tumor volume of the control group−mean tumor volume of a treated group]/mean tumor volume of the control group; a T/C ratio) was determined on Day 20. The T/C ratios across a treatment group were compared to the T/C ratios of the control group using a two-tailed Welch's t-test.
# The differences in the tumor growth trends over time between pairs of treatment groups were assessed using linear mixed effects regression models. These models account for the fact that each animal was measured at multiple time points. A separate model was fit for each comparison, and the areas under the curve (AUC) for each treatment group were calculated using the predicted values from the model. The percent decrease in AUC (dAUC) relative to the reference group was then calculated.
# CT26 hGCC/luc #32 cells = assay: Pilot efficacy study with naked antibody in CT26 hGCC/luc #32 disseminated model; conditions: 40 mg/kg
compound,measurement,setting,value
5F9-SMCC-DM1: 5F9 conjugated to DM1 using SMCC heterobifunctional crosslinker,Percentage of phosphohistone H3 positive cells in 293-GCC#2 tumors,293-GCC#2 tumors [1],increased
same,Tumor growth (efficacy),293-GCC#2 tumors [2],"efficacious, however less so than 5F9-SPDB-DM4 at 150 ug/kg"
5F9-vcMMAE: 5F9 mAb conjugated to MMAE through the vc (Val-Cit) linker; average drug loading about 3.6,T/C (treatment/control),293 GCC#2 tumors; 75 μg/kg iv q7d×4,0.45
same,TGD (tumor growth delay),293 GCC#2 tumors; 75 μg/kg iv q7d×4,4.4
same,TGI (tumor growth inhibition),293 GCC#2 tumors; 75 μg/kg iv q7d×4,54.5
same,T/C (treatment/control),293 GCC#2 tumors; 150 μg/kg iv q7d×4,0.17
same,TGI (tumor growth inhibition),293 GCC#2 tumors; 150 μg/kg iv q7d×4,83.5
same,T/C (treatment/control),293 GCC#2 tumors; 300 μg/kg iv q7d×4,0.03
same,TGI (tumor growth inhibition),293 GCC#2 tumors; 300 μg/kg iv q7d×4,96.9
5F9-vcMMAF: 5F9 anti-GCC antibody molecule conjugated with mc-vc-MMAF,Percentage of phosphohistone H3 positive cells in 293-GCC#2 tumors,293-GCC#2 tumors [1],increased
same,Target enhanced cell kill,293 GCC#2 cells,target enhanced cell kill
same,Toxicity,HT29-GCC#5 tumors,toxicity
same,Target enhanced cell kill,HT29 GCC#5 cells,target enhanced cell kill
same,Tumor growth (efficacy),293-GCC#2 tumors [2],the most efficacious
same,T/C (treatment/control),293 GCC#2 tumors; 37.5 μg/kg iv q7d×4,0.35
same,TGD (tumor growth delay),293 GCC#2 tumors; 37.5 μg/kg iv q7d×4,7.1
same,TGI (tumor growth inhibition),293 GCC#2 tumors; 37.5 μg/kg iv q7d×4,65.2
same,T/C (treatment/control),293 GCC#2 tumors; 75 μg/kg iv q7d×4,0.12
same,TGI (tumor growth inhibition),293 GCC#2 tumors; 75 μg/kg iv q7d×4,88.5
same,T/C (treatment/control),293 GCC#2 tumors; 150 μg/kg iv q7d×4,0.03
same,TGI (tumor growth inhibition),293 GCC#2 tumors; 150 μg/kg iv q7d×4,97
same,Tumor growth inhibition (efficacy),"293 GCC#2 tumors; 293 GCC#2 model, iv, q7d×4 schedule",more potent than 5F9-vcMMAE
CC[C@H](C)[C@@H]([C@@H](CC(=O)N1CCC[C@H]1[C@H](OC)[C@@H](C)C(=O)N[C@H](C)[C@@H](O)c1ccccc1)OC)N(C)C(=O)[C@@H](NC(=O)[C@@H](NC)C(C)C)C(C)C [Free MMAE] (H-[NMeV]V[Dil][Dolaproine]-X1),CR/PR (complete response/partial response),293 GCC#2 tumors; 300 μg/kg iv q7d×4,0
same,T/C (treatment/control),293 GCC#2 tumors; 300 μg/kg iv q7d×4,0.64
same,TGD (tumor growth delay),293 GCC#2 tumors; 300 μg/kg iv q7d×4,2
same,TGI (tumor growth inhibition),293 GCC#2 tumors; 300 μg/kg iv q7d×4,35.6
CC[C@H](C)[C@@H]([C@@H](CC(=O)N1CCC[C@H]1[C@H](OC)[C@@H](C)C(=O)N[C@@H](Cc1ccccc1)C(=O)O)OC)N(C)C(=O)[C@@H](NC(=O)[C@H](C(C)C)N(C)C(=O)CCCCCN1C(=O)C=CC1=O)C(C)C [Free mcMMAF] ({Hexanoyl(6-maleimido)}-[NMeV]V[Dil][Dolaproine]F-OH),CR/PR (complete response/partial response),293 GCC#2 tumors; 150 μg/kg iv q7d×4,0
same,T/C (treatment/control),293 GCC#2 tumors; 150 μg/kg iv q7d×4,1.03
same,TGD (tumor growth delay),293 GCC#2 tumors; 150 μg/kg iv q7d×4,−1.3
same,TGI (tumor growth inhibition),293 GCC#2 tumors; 150 μg/kg iv q7d×4,−3.4
"CC[C@H](C)[C@@H]([C@@H](CC(=O)N1CCC[C@H]1[C@H](OC)[C@@H](C)C(=O)N[C@H](C)[C@@H](O)c1ccccc1)OC)N(C)C(=O)[C@@H](NC(=O)[C@@H](NC)C(C)C)C(C)C [MMAE, monomethyl auristatin E] (H-[NMeV]V[Dil][Dolaproine]-X1)",TGI,[3]; 0.075 mg/kg IV QW,no tumor growth inhibition
same,TGI,[3]; 0.135 mg/kg IV QW,no tumor growth inhibition
same,TGI,[3]; 0.15 mg/kg IV QW,no tumor growth inhibition
same,TGI,"[3]; Study A, 0.075 mg/kg IV QW × 3 doses, Day 20",5.0 (p > 0.05) %
same,TGI,"[3]; Study A, 0.15 mg/kg IV QW × 3 doses, Day 20",11.1 (p > 0.05) %
same,TGI,"[3]; Study B, 0.135 mg/kg IV QW × 3 doses, determined on Day 20",2.2 (p > 0.05) %
"sc209: human IgG1 monoclonal antibody raised against an unrelated target, with no reactivity to GCC; negative control [reference compound]",T/C compared to 0.9% NaCl group,CT26 hGCC/luc #32 cells,0.64
same,"Lung weight, T test P vs. vehicle",CT26 hGCC/luc #32 cells; end of study,0.4

# From US8785600B2, “Anti-GCC antibody molecules and related compositions and methods” (Millennium Pharmaceuticals, Inc., priority 2009, dated 2014)
